Reference: the supplement of paper PMC5579334

Tests used:
[1] = tested on: HSC1; experiment: relative IC50 (inflection point of fitted dose-response curve, CellTox-Green cytotoxicity, 72 h; top asymptote may be below 50%); higher = less potent
Procedure, shortened: (§1)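 MPNST cell lines and primary human Schwann cells were grown for 72 h at 37 °C in 384-well plates containing five 10-fold compound dilutions. CellTox-Green, added before seeding at a final 1:1000 dilution, gave fluorescence from DNA released by disrupted cells, and signals were scaled to vehicle and positive-control wells. Curves were fitted with a four-parameter logistic model. Drug sensitivity score and relative IC50 come from these fits, with IC50 censored at the top concentration.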

[2] = tested on: HSC2; experiment: as above
Procedure, shortened: as §1

[3] = tested on: S1507-2; experiment: as above
Procedure, shortened: as §1

[4] = tested on: STS26T; experiment: as above
Procedure, shortened: as §1

[5] = tested on: HS-PSS; experiment: as above
Procedure, shortened: as §1

[6] = tested on: ST8814; experiment: as above
Procedure, shortened: as §1

[7] = tested on: HS-Sch-2; experiment: relative IC50 (inflection point of fitted dose-response curve, CellTiter-Glo viability, 72 h; top asymptote may be below 50% inhibition); higher = less potent
Procedure, shortened: (§2)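 For this screen, 384-well plates were preprinted with each compound at five concentrations in 10-fold steps and seeded with MPNST cell lines or primary human Schwann cells at 750–1000 cells per well. Incubation lasted 72 h at 37 °C, 5% CO2, and CellTiter-Glo ATP luminescence, scaled between vehicle and positive-control wells and averaged over duplicates where available, served as viability. Logistic fits with four parameters were applied. Relative IC50 (censored at the top concentration) and drug sensitivity score derive from these fits, and percent inhibition is at the top concentration.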

[8] = tested on: HSC1; experiment: as above
Procedure, shortened: as §2

[9] = tested on: YST-1; experiment: as above
Procedure, shortened: as §2

[10] = tested on: HSC2; experiment: as above
Procedure, shortened: as §2

[11] = tested on: S1507-2; experiment: as above
Procedure, shortened: as §2

[12] = tested on: S462; experiment: as above
Procedure, shortened: as §2

[13] = tested on: STS26T; experiment: as above
Procedure, shortened: as §2

[14] = tested on: HS-PSS; experiment: as above
Procedure, shortened: as §2

[15] = tested on: ST8814; experiment: as above
Procedure, shortened: as §2

| SMILES | relative IC50 [1] | relative IC50 [2] | relative IC50 [3] | relative IC50 [4] | relative IC50 [5] | relative IC50 [6] | relative IC50 [7] | relative IC50 [8] | relative IC50 [9] | relative IC50 [10] | relative IC50 [11] | relative IC50 [12] | relative IC50 [13] | relative IC50 [14] | relative IC50 [15] |
| --- | --- | --- | --- | --- | --- | --- | --- | --- | --- | --- | --- | --- | --- | --- | --- |
| CC(=O)O[C@H]1C(=O)[C@@]2(C)[C@H]([C@H](OC(=O)c3ccccc3)[C@]3(O)C[C@H](OC(=O)[C@H](O)[C@@H](NC(=O)c4ccccc4)c4ccccc4)C(C)=C1C3(C)C)[C@]1(OC(C)=O)CO[C@@H]1C[C@@H]2O [Paclitaxel] | 0.0244 µM | 0.019 µM | 0.0423 µM | 0.00172 µM | > 1 µM | 0.025 µM | 0.00871 µM | 0.00818 µM | 0.00383 µM | 0.00836 µM | 0.0185 µM | 0.00384 µM | 0.00463 µM | 0.00692 µM | 0.0217 µM |
| O=C(/C=C/c1cccnc1)NCCCCC1CCN(C(=O)c2ccccc2)CC1 [Daporinad] | > 1 µM | > 1 µM | > 1 µM | 0.0361 µM | > 1 µM | > 1 µM | 0.00357 µM | 0.00732 µM | 0.0028 µM | 0.00805 µM | 0.0378 µM | 0.00441 µM | 0.0369 µM | 0.00573 µM | 0.00762 µM |
| COc1ccccc1S(=O)(=O)Nc1ccc2c(c1)CN(C)C(=O)N2 [PFI-1] | > 10 µM | > 10 µM | 3.63 µM | > 10 µM | > 10 µM | 2.08 µM | 1.67 µM | 2.81 µM | 1.72 µM | 2.12 µM | 1.67 µM | 1.71 µM | 1.47 µM | 3.73 µM | 1.53 µM |
| C=CCNC1=C2C[C@@H](C)C[C@H](OC)[C@H](O)[C@@H](C)/C=C(\C)[C@H](OC(N)=O)[C@@H](OC)/C=C\C=C(/C)C(=O)NC(=CC1=O)C2=O [Tanespimycin] | 0.321 µM | 0.258 µM | 0.397 µM | 0.16 µM | 0.46 µM | 0.729 µM | 0.128 µM | 0.421 µM | 0.0494 µM | 0.38 µM | 0.17 µM | 0.31 µM | 0.108 µM | 0.157 µM | 0.158 µM |
| CCCCC(=O)OCC(=O)[C@]1(O)Cc2c(O)c3c(c(O)c2[C@@H](O[C@H]2C[C@H](NC(=O)C(F)(F)F)[C@H](O)[C@H](C)O2)C1)C(=O)c1c(OC)cccc1C3=O [Valrubicin] | > 5 µM | > 5 µM | > 5 µM | > 5 µM | > 5 µM | > 5 µM | 0.264 µM | 0.238 µM | 0.097 µM | 0.258 µM | 0.534 µM | 0.233 µM | 0.306 µM | 0.422 µM | 0.285 µM |
| CCc1c2c(nc3ccc(OC(=O)N4CCC(N5CCCCC5)CC4)cc13)-c1cc3c(c(=O)n1C2)COC(=O)[C@]3(O)CC [Irinotecan] | 2.66 µM | 2.24 µM | 3.67 µM | 2.36 µM | 2.13 µM | 1.94 µM | 1.34 µM | 0.406 µM | 0.359 µM | 0.823 µM | 1.58 µM | 1.31 µM | 1.79 µM | 2.61 µM | 1.21 µM |
| CO[C@H]1[C@@H](N(C)C(=O)c2ccccc2)C[C@@H]2O[C@@]1(C)n1c3ccccc3c3c4c(c5c6ccccc6n2c5c31)C(=O)NC4 [Midostaurin] | 0.901 µM | 0.243 µM | 0.395 µM | 0.323 µM | > 10 µM | 0.274 µM | 0.409 µM | 0.112 µM | 0.163 µM | 0.155 µM | 0.282 µM | 0.58 µM | 0.436 µM | 0.465 µM | 0.443 µM |
| O=[N+]([O-])c1ccc2c(c1)S(=O)(=O)C=C2 [Stattic] | 2.45 µM | 7.9 µM | 15.9 µM | 2.27 µM | 2.87 µM | 4.72 µM | 1.42 µM | 1.88 µM | 1.74 µM | 3.04 µM | 9.57 µM | 4.99 µM | 2.99 µM | 1.39 µM | 2.41 µM |
| C[C@@]1(C(=O)Nc2ccc(F)nc2)CCCN1c1nc(Nc2cc(C3CC3)n[nH]2)c2cccn2n1 | 2.36 µM | 1.4 µM | 1.65 µM | 0.279 µM | 3.33 µM | 0.312 µM | 1.15 µM | 0.441 µM | 0.0182 µM | 0.308 µM | 0.495 µM | 0.307 µM | 0.663 µM | 1.65 µM | 0.534 µM |
| C#Cc1cccc(Nc2ncnc3cc(OC)c(OCCCCCCC(=O)NO)cc23)c1 [CUDC-101] | 1.13 µM | 0.984 µM | 1.81 µM | 2.5 µM | 1.85 µM | 1.27 µM | 0.438 µM | 0.47 µM | 0.159 µM | 0.545 µM | 0.909 µM | 0.732 µM | 1.82 µM | 0.699 µM | 0.801 µM |
| Nc1ccccc1NC(=O)c1ccc(CNc2nccc(-c3cccnc3)n2)cc1 [Mocetinostat] | 3.39 µM | 2.71 µM | 3.73 µM | 1.72 µM | 2.65 µM | 3.1 µM | 1.4 µM | 0.921 µM | 0.53 µM | 0.818 µM | 1.84 µM | 0.354 µM | 1.4 µM | 2.2 µM | 1.61 µM |
| Cc1cc2c(F)c(Oc3ncnn4cc(OC[C@@H](C)O)c(C)c34)ccc2[nH]1 [Brivanib] | > 1 µM | > 1 µM | > 1 µM | > 1 µM | > 1 µM | > 1 µM | > 1 µM | > 1 µM | > 1 µM | > 1 µM | > 1 µM | > 1 µM | > 1 µM | > 1 µM | > 1 µM |
| COc1c(C)cnc(Cn2cnc3c(Cl)nc(N)nc32)c1C [BIIB021] | 0.217 µM | 0.231 µM | 0.484 µM | 0.316 µM | 0.396 µM | 0.587 µM | 0.0951 µM | 0.395 µM | 0.328 µM | 0.297 µM | 0.268 µM | 0.186 µM | 0.247 µM | 0.424 µM | 0.28 µM |
| O=C(/C=C/c1cccc(S(=O)(=O)Nc2ccccc2)c1)NO [Belinostat] | 1.77 µM | 1.7 µM | 1.19 µM | 0.415 µM | 1.49 µM | 0.8 µM | 0.61 µM | 0.459 µM | 0.259 µM | 0.704 µM | 0.364 µM | 0.762 µM | 0.718 µM | 0.924 µM | 0.321 µM |
| CC[C@@]1(O)C(=O)OCc2c1cc1n(c2=O)Cc2cc3c(CN(C)C)c(O)ccc3nc2-1 [Topotecan] | 0.0508 µM | 0.237 µM | 0.55 µM | 0.197 µM | 0.869 µM | 0.0233 µM | 0.136 µM | 0.123 µM | 0.0441 µM | 0.0909 µM | 0.173 µM | 0.0524 µM | 0.202 µM | 0.323 µM | 0.0425 µM |
| CNC(=O)c1cc(Oc2ccc(NC(=O)Nc3cc(C(C)(C)C)nn3-c3ccc4ncccc4c3)c(F)c2)ccn1 [Rebastinib] | > 1 µM | > 1 µM | > 1 µM | > 1 µM | > 1 µM | > 1 µM | > 1 µM | > 1 µM | > 1 µM | > 1 µM | > 1 µM | > 1 µM | > 1 µM | > 1 µM | > 1 µM |
| Cn1cc(CNCC2CCN(c3ncc(C(=O)NO)cn3)CC2)c2ccccc21 [Quisinostat] | 0.208 µM | 0.226 µM | 0.0448 µM | 0.105 µM | 0.131 µM | 0.0561 µM | 0.0455 µM | 0.0345 µM | 0.00858 µM | 0.0568 µM | 0.0183 µM | 0.0204 µM | 0.0434 µM | 0.0428 µM | 0.0166 µM |
| COc1cc([C@@H]2c3cc4c(cc3[C@@H](O[C@@H]3O[C@@H]5CO[C@@H](c6cccs6)O[C@H]5[C@H](O)[C@H]3O)[C@H]3COC(=O)[C@H]23)OCO4)cc(OC)c1O [Teniposide] | 1.15 µM | 1.43 µM | 1.41 µM | 0.266 µM | 3.01 µM | 0.219 µM | 0.482 µM | 0.0688 µM | 0.0501 µM | 0.0885 µM | 0.314 µM | 0.112 µM | 0.227 µM | 1.24 µM | 0.193 µM |
